Experimental data published in patent publication US20030039580A1, “Stable preservative formulations comprising halopropynyl compounds and butoxydiglycol solvent” (Lonza Inc., priority 2001, published 2003).

Tests used:
Burkholderia cepacia = test: Minimum inhibitory concentration, IPBC and butoxydiglycol in protein shampoo (Example 4); type: cell-based
Method: Sample protein shampoos I, J and K were formed. Sample I contained only IPBC. Sample J contained only butoxydiglycol. Sample K contained both IPBC and butoxydiglycol. […] Synergism for the IPBC/butoxydiglycol studies in Table 5 was calculated by the method described in C. E. Kull et al., “Mixtures of Quaternary Ammonium Compounds and Long-Chain Fatty Acids as Antifungal Agents”, Applied Microbiology, 4:538-541(1961). The Kull method determines the quantity of each component in a mixture which is required to reach a given microbiological endpoint (e.g., MIC), and compares that amount with the quantity of the pure component necessary to reach the same endpoint. According to this method, a synergism index or value QA/QB+Qa/Qb is determined, wherein: […]

[1] = Solubility testing of propynyl compounds in solvents; type: physicochemical; conditions: for Solubility in Butanediol Anhydrous: solvent Butanediol Anhydrous; for Solubility in Butoxydiglycol: solvent Butoxydiglycol; for Solubility in Sorbitol: solvent Sorbitol
Source text: The compounds used in Example 1 are identified below in Table 1. The results of the solubility testing is shown below in Table 2.

Bacteria = test: Antibacterial screening of propynyl compositions in protein shampoo formulations (Example 3); type: cell-based; conditions: Table 4, 500 ppm in protein shampoo pH 7.0 (GPL 1000 ppm), solvent butoxydiglycol (A, H) or butylene glycol (F, G)
Source text: (§1) Samples of a standard protein shampoo (pH-7.0) were formed. The shampoo contained the following preservative-free ingredients, w/w % Samples A, […] and H contained active preservative iodopropynyl agents in a solvent. Samples A and H contained butoxydiglycol as the solvent. Samples F and G (containing a propynyl compound rather than a halopropynyl compound) contained butylene glycol as the solvent.

Fungi = test: Antifungal screening of propynyl compositions in protein shampoo formulations (Example 3); type: cell-based; conditions: Table 4, 500 ppm in protein shampoo pH 7.0 (GPL 1000 ppm), solvent butoxydiglycol (A, H) or butylene glycol (F, G)
Source text: as §1

[2] = test system: mixed fungi, comprising A. niger (ATCC 16404) and C. albicans (ATCC 10231); test: Inhibition of mixed fungi by propynyl compound solutions in protein shampoo (Example 2); type: cell-based; conditions: Table 3, 500 ppm in protein shampoo (GPL 1000 ppm), solvent butoxydiglycol (A, E) or butylene glycol (B, C, D)
Method: (§2) Each of the samples A to E is a protein shampoo comprising a propynyl compound. The samples were tested for antibacterial and antifungal properties by testing for inhibition of a mixed bacteria, comprising E. coli (ATCC 8739), P. aeruginosa (ATCC 9027), and S. aureus (ATCC 6538), and inhibition of a mixed fungi, comprising A. niger (ATCC 16404) and C. albicans (ATCC 10231).
(§3) The samples “GPL” and “NP” are controls. “GPL” is 0. 1% Glydantg Plus, a liquid antimicrobial preservative available from Lonza Inc., Fair Lawn, N.J., containing a dimethyol dimethyl hydantoin formaldehyde donor. Glydant® Plus is used in personal care formulations in cosmetics and personal care products.
(§4) In Table 3, samples A and E consist of an iodopropynyl compound in a butoxydiglycol solvent. Samples C and D consist of an iodopropynyl compound in a butylene glycol solvent, and Sample B consists of a propynyl compound in a butylene glycol solvent.

[3] = test system: mixed bacteria, comprising E. coli (ATCC 8739), P. aeruginosa (ATCC 9027), and S. aureus (ATCC 6538); test: Inhibition of mixed bacteria by propynyl compound solutions in protein shampoo (Example 2); type: cell-based; conditions: Table 3, 500 ppm in protein shampoo (GPL 1000 ppm), solvent butoxydiglycol (A, E) or butylene glycol (B, C, D)
Method: as §2, §3, §4

With `CCCCOCCOCCO` [Butoxydiglycol, 2-(2-butoxyethoxy)ethanol] the MIC (Burkholderia cepacia; Burkholderia cepacia, single active alone in protein shampoo, complete inhibition of growth, read-out: MIC, ppm active) was 12.5 mg/mL and the “Concentration (ppm) QB” value (Burkholderia cepacia; Table 6, parameter MIC) was 12,500 ppm.
For `O=c1c(Cl)cn(CC#CI)c(=O)n1CC#CI` [Compound L58, 1N,3N-Diiodopropyn-2-yl-5-chlorouracil], the “Solubility in Butanediol Anhydrous” value [1] was “−”, the “Solubility in Butoxydiglycol” value [1] was “+” and the “DAY 0 Bacteria (cfu/ml)” value (Bacteria) was 9.00 × 10^6 cfu/ml. The “DAY 14 Bacteria (cfu/ml)” value (Bacteria) was less than 10 cfu/ml, the “DAY 28 Bacteria (cfu/ml)” value (Bacteria) was less than 10 cfu/ml and the “DAY 0 Fungi (cfu/ml)” value (Fungi) was 1.00 × 10^5 cfu/ml. For the same molecule, the “DAY 14 Fungi (cfu/ml)” value (Fungi) was less than 10 cfu/ml, the “DAY 28 Fungi (cfu/ml)” value (Fungi) was less than 10 cfu/ml and the “DAY 0 Fungi (cfu/ml)” value [2] was 1.00 × 10^5 cfu/ml. The “DAY 14 Fungi (cfu/ml)” value [2] was less than 10 cfu/ml, the “DAY 28 Fungi (cfu/ml)” value [2] was less than 10 cfu/ml and the “DAY 0 Bacteria (cfu/ml)” value [3] was 8.00 × 10^6 cfu/ml. For the same molecule, the “DAY 14 Bacteria (cfu/ml)” value [3] was less than 10 cfu/ml and the “DAY 28 Bacteria (cfu/ml)” value [3] was less than 10 cfu/ml.
For `O=C(C#CI)c1ccc(C(F)(F)F)cc1` [Compound L74, 3-iodo-1-(4-trifluoromethylphenyl)-2-propyn-1-one], the “Solubility in Butanediol Anhydrous” value [1] was “+”, the “Solubility in Butoxydiglycol” value [1] was “+” and the “DAY 0 Fungi (cfu/ml)” value [2] was 1.00 × 10^5 cfu/ml. For the same molecule, the “DAY 14 Fungi (cfu/ml)” value [2] was less than 10 cfu/ml, the “DAY 28 Fungi (cfu/ml)” value [2] was >10^3 cfu/ml and the “DAY 0 Bacteria (cfu/ml)” value [3] was 8.00 × 10^6 cfu/ml. For the same molecule, the “DAY 14 Bacteria (cfu/ml)” value [3] was >3.0 × 10^3 cfu/ml and the “DAY 28 Bacteria (cfu/ml)” value [3] was >10^3 cfu/ml.
With `OC(C#CI)c1cccs1` (centres unmarked) [Compound L90, 2-(3-iodo-2-propyn-1-ol-yl) thiophene] the “Solubility in Butanediol Anhydrous” value [1] was “+”, the “Solubility in Butoxydiglycol” value [1] was “+” and the “Solubility in Sorbitol” value [1] was “−”. The “DAY 0 Fungi (cfu/ml)” value [2] was 1.00 × 10^5 cfu/ml, the “DAY 14 Fungi (cfu/ml)” value [2] was less than 10 cfu/ml and the “DAY 28 Fungi (cfu/ml)” value [2] was >10^3 cfu/ml. The “DAY 0 Bacteria (cfu/ml)” value [3] was 7.00 × 10^6 cfu/ml, the “DAY 14 Bacteria (cfu/ml)” value [3] was >3.0 × 10^3 cfu/ml and the “DAY 28 Bacteria (cfu/ml)” value [3] was >10^3 cfu/ml.
For `OC(C#CI)c1ccc(Cl)s1` (centres unmarked) [Compound L100], the “DAY 0 Bacteria (cfu/ml)” value (Bacteria) was 8.00 × 10^6 cfu/ml, the “DAY 14 Bacteria (cfu/ml)” value (Bacteria) was 2.00 × 10^1 cfu/ml and the “DAY 28 Bacteria (cfu/ml)” value (Bacteria) was 200 cfu/ml. The “DAY 0 Fungi (cfu/ml)” value (Fungi) was 1.00 × 10^5 cfu/ml, the “DAY 14 Fungi (cfu/ml)” value (Fungi) was less than 10 cfu/ml and the “DAY 28 Fungi (cfu/ml)” value (Fungi) was less than 10 cfu/ml.
With `Cc1ccc(C(Cn2ccnc2)OCC#CI)cc1` (centres unmarked) [Compound L103, 2-(1-imidazolyl)-1-(4-methylphenyl)ethyl iodopropargyl ether] the “Solubility in Butanediol Anhydrous” value [1] was “−”, the “Solubility in Butoxydiglycol” value [1] was “+” and the “Solubility in Sorbitol” value [1] was “−”. The “DAY 0 Fungi (cfu/ml)” value [2] was 1.00 × 10^5 cfu/ml, the “DAY 14 Fungi (cfu/ml)” value [2] was 500 cfu/ml and the “DAY 28 Fungi (cfu/ml)” value [2] was 400 cfu/ml. For the same molecule, the “DAY 0 Bacteria (cfu/ml)” value [3] was 7.00 × 10^6 cfu/ml, the “DAY 14 Bacteria (cfu/ml)” value [3] was less than 10 cfu/ml and the “DAY 28 Bacteria (cfu/ml)” value [3] was less than 10 cfu/ml.
For `C#CC(=O)c1ccc(C#N)cc1` [Compound L106, 1-(4-cyanophenyl)-2-propyn-1-one], the “Solubility in Butanediol Anhydrous” value [1] was “+”, the “Solubility in Butoxydiglycol” value [1] was “+” and the “Solubility in Sorbitol” value [1] was “−”. For the same molecule, the “DAY 0 Bacteria (cfu/ml)” value (Bacteria) was 8.00 × 10^6 cfu/ml, the “DAY 14 Bacteria (cfu/ml)” value (Bacteria) was >1.0 × 10^4 cfu/ml and the “DAY 28 Bacteria (cfu/ml)” value (Bacteria) was less than 10 cfu/ml. The “DAY 0 Fungi (cfu/ml)” value (Fungi) was 1.00 × 10^5 cfu/ml, the “DAY 14 Fungi (cfu/ml)” value (Fungi) was >1.0 × 10^3 cfu/ml and the “DAY 28 Fungi (cfu/ml)” value (Fungi) was 100 cfu/ml.
For `O=C(O)CCOCC#CI` [Compound L111, Iodopropynyloxypropionic Acid], the “DAY 0 Bacteria (cfu/ml)” value (Bacteria) was 8.00 × 10^6 cfu/ml, the “DAY 14 Bacteria (cfu/ml)” value (Bacteria) was less than 10 cfu/ml and the “DAY 28 Bacteria (cfu/ml)” value (Bacteria) was less than 10 cfu/ml. For the same molecule, the “DAY 0 Fungi (cfu/ml)” value (Fungi) was 8.00 × 10^6 cfu/ml, the “DAY 14 Fungi (cfu/ml)” value (Fungi) was less than 10 cfu/ml and the “DAY 28 Fungi (cfu/ml)” value (Fungi) was less than 10 cfu/ml.
In the case of `CCCCNC(=O)OCC#CI` [IPBC, 3-iodo-2-propynyl butyl carbamate], the “Concentration (ppm) QA” value (Burkholderia cepacia; Table 6, parameter MIC) is reported as 1,250 ppm and the “MIC, ppm active” value (Burkholderia cepacia; single active alone in protein shampoo, complete inhibition of growth) is reported as 1,250 ppm.
